Key:
VLA-4/VCAM-1 = target: T1, VLA-4/VCAM-1 (Homo sapiens, UniProt P05556+P13612); test: VLA-4/VCAM-1 Screening Assay (solid-phase, dual antibody ELISA); type: binding; conditions: Ramos cell-derived VLA-4, immobilized recombinant human VCAM-1
T1 construct: Ramos cell-derived VLA-4; endogenous in cells; host or cells: Ramos cells (VLA-4)
Excerpt: A means for determining the potency of these anti-inflammatory agents is by evaluating their ability to inhibit binding of the integrin VLA-4 to the cell adhesion molecule VCAM-1. For example, the potency of the compounds herein can be determined with respect to the concentration of the compound at 50% inhibition of VCAM/VLA4 binding (IC50) as measured by VLA-4/VCAM-1 binding assay.
In accordance with the present invention, any conventional method known in the art can be used to determine inhibition of VCAM-1/VLA-4 binding. For example, a solid-phase dual antibody ELISA or Ramos cell-based screening assay can be utilized to determine inhibition of VCAM-1/VLA-4 binding.
VLA-4/VCAM-1 Screening Assay
VLA-4 antagonist activity, defined as ability to compete for binding to immobilized VCAM-1, was quantitated using a solid-phase, dual antibody ELISA. VLA-4 (α4β1 integrin) bound to VCAM-1 is detected by a complex of anti-integrin β1 antibody: HRP-conjugated anti-mouse IgG: chromogenic substrate (K-Blue). Initially, this entailed coating 96 well plates (Nunc Maxisorp) with recombinant human VCAM-1 (0.4 μg in 100 μl PBS), sealing each plate and then allowing the plates to stand at 4° C. for 18 hours. […] On the day of assay, all plates are washed twice with VCAM Assay Buffer (200 μl/well of 50 mM Tris-HCl, 100 mM NaCl, 1 mM MnCl2, 0.05% T ween 20; pH 7.4). Test compounds are dissolved in 100% DMSO and then diluted 1:20 in VCAM Assay Buffer supplemented with 1 mg/mL BSA (i.e., final DMSO=5%). A series of 1:4 dilutions are performed to achieve a concentration range of 0.005 nM-1.563 μM for each test compound. 100 μl per well of each dilution is added to the VCAM-coated plates, followed by 10 μl of Ramos cell-derived VLA-4. These plates are sequentially mixed on a platform shaker for 1 min, incubated for 2 hour at 37° C., and then washed four times with 200 μl/well VCAM Assay Buffer. 100 μl of mouse anti-human integrin b1 antibody is added to each well (0.6 μg/mL in VCAM Assay Buffer+1 mg/mL BSA) and allowed to incubate for 1 hour at 37° C. At the conclusion of this incubation period, all plates are washed four times with VCAM Assay Buffer (200 μl/well). A corresponding second antibody, HRP-conjugated goat anti-mouse IgG (100 μl per well @ 1:800 dilution in VCAM Assay Buffer+1 mg/mL BSA), is then added to each well, followed by a 1 hour incubation at room temperature and concluded by three washes (200 μl/well) with VCAM Assay Buffer. Color development is initiated by addition of 100 μl K-Blue per well (15 mim incubation, room temp) and terminated by addition of 100 μl Red Stop Buffer per well. All plates are then read in a UV/Vis spectrophotometer at […]. Results are calculated as % inhibition of total binding (i.e., VLA-4+VCAM-1 in the absence of test compound).

Ramos (VLA-4)/VCAM-1 = target: T2, Ramos (VLA-4)/VCAM-1 (Homo sapiens, UniProt P05556+P13612); test: Ramos (VLA-4)/VCAM-1 Cell-Based Screening Assay (Ramos-VCAM-1 cell adhesion); conditions: Calcein-AM labeled Ramos cells, immobilized recombinant human VCAM-1
T2 construct: Ramos cells bearing cell-surface VLA-4; endogenous in cells; host or cells: Ramos cells (VLA-4); soluble VCAM-1 purified from CHO cell culture media
T2 sequence (P13612 34-1032): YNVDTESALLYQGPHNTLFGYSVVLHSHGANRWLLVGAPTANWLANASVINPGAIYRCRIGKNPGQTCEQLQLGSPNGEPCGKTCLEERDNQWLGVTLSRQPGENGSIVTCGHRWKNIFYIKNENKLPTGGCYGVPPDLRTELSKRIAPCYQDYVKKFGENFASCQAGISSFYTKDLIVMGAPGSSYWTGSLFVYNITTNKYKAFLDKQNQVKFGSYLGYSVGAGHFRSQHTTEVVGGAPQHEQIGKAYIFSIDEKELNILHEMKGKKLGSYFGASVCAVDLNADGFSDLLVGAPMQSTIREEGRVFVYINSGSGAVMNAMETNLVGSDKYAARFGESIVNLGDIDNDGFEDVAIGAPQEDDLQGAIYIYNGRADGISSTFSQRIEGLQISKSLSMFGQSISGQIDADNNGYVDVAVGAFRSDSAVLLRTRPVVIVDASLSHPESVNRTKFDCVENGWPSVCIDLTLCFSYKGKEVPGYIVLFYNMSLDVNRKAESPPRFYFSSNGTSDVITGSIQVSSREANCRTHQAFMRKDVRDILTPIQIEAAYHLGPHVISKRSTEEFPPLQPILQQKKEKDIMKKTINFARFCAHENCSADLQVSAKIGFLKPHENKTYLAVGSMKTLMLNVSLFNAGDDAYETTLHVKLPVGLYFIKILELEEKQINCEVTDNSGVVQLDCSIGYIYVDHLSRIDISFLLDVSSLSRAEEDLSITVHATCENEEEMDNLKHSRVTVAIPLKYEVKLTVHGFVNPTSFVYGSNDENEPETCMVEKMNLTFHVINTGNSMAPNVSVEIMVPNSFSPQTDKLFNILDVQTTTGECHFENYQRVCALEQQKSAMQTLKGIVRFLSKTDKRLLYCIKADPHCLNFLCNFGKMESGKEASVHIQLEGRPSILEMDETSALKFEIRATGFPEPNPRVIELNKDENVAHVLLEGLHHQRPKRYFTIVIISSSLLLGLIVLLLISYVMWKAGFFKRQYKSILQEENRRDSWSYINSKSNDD
T2 sequence (P05556 21-798): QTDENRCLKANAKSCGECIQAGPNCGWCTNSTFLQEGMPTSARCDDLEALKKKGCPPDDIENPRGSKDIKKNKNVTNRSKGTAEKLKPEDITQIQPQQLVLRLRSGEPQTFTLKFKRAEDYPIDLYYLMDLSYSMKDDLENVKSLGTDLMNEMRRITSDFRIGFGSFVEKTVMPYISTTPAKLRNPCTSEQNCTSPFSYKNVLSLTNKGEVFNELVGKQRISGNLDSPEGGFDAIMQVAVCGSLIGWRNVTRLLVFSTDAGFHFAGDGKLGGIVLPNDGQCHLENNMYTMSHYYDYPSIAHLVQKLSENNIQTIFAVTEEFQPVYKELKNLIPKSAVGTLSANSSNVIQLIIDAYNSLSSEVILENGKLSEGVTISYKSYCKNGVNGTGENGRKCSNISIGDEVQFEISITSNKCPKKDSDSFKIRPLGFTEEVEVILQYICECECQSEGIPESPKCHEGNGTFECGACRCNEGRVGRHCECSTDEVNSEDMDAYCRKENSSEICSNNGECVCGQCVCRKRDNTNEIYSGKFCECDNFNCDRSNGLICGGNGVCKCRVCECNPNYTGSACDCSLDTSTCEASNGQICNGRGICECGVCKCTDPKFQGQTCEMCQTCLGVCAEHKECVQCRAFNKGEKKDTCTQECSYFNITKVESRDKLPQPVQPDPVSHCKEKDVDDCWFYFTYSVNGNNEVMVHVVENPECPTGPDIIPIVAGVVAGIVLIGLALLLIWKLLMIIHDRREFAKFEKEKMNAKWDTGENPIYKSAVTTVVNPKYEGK
Protocol: Ramos (VLA-4)/VCAM-1 Cell-Based Screening Assay Protocol
Soluble recombinant human VCAM-1 (mixture of 5- and 7-Ig domain) was purified from CHO cell culture media by immunoaffinity chromatography and maintained in a solution containing 0.1 M Tris-glycine (pH 7.5), 0.1 M NaCl, 5 mM EDTA, 1 mM PMSF, […] NaN3 and 10 μg/mL leupeptin. Calcein-AM was purchased from Molecular Probes Inc.
VLA-4 (a4b1 integrin) antagonist activity, defined as the ability to compete with cell-surface VLA-4 for binding to immobilized VCAM-1, was quantitated using a Ramos-VCAM-1 cell adhesion assay. Ramos cells bearing cell-surface VLA-4, were labeled with a fluorescent dye (Calcein-AM) and allowed to bind VCAM-1 in the presence or absence of test compounds. A reduction in fluorescence intensity associated with adherent cells (% inhibition) reflected competitive inhibition of VLA-4 mediated cell adhesion by the test compound.
Initially, this entailed coating 96 well plates (Nunc Maxisorp) with recombinant human VCAM-1 (100 ng in 100 μl PBS), sealing each plate and allowing the plates to stand at 4° C. for ^~ 18 hour. The VCAM-coated plates were subsequently washed twice with 0.05% Tween-20 in PBS, and then blocked for 1 hour (room temperature) with 200 μl of Blocking Buffer (1% BSA/0.02% thimerosal) to reduce non-specific binding. Following the incubation with Blocking Buffer, plates were inverted, blotted and the remaining buffer aspirated. Each plate was then washed with 300 μl PBS, inverted and the remaining PBS aspirated.
Test compounds were dissolved in 100% DMSO and then diluted 1:25 in VCAM Cell Adhesion Assay Buffer (4 mM CaCl2, 4 mM MgCl2 in 50 mM TRIS-HCl, pH 7.5) (final DMSO=4%). A series of eight 1:4 dilutions were performed for each compound (general concentration range of 1 nM-12,500 nM). 100 μl/well of each dilution was added to the VCAM-coated plates, followed by 100 μl of Ramos cells (200,000 cells/well in 1% BSA/PBS). Plates containing test compounds and Ramos cells were allowed to incubate for 45 min at room temperature, after which 165 μl/well PBS was added. Plates were inverted to remove non-adherent cells, blotted and 300 μl/well PBS added. Plates were again inverted, blotted and the remaining buffer gently aspirated. 100 μl Lysis Buffer (0.1% SDS in 50 mM TRIS-HCl, pH 8.5) was added to each well and agitated for 2 min on a rotary shaking platform. The plates were then read for fluorescence intensity on a Cytofluor 2300 (Millipore) fluorecence measurement system (excitation=485 nm, emission=530 nm).

T1 sequence (P13612 34-1032): as the sequence (P13612 34-1032) above
T1 sequence (P05556 21-798): as the sequence (P05556 21-798) above

Structure (SMILES) | IC50 (VLA-4/VCAM-1) | IC50 (Ramos (VLA-4)/VCAM-1)
CC(=O)N1CC[C@H](c2ccc(O)cc2)[C@H]1C(=O)N[C@H]1CSSC[C@@H](C(=O)O)NC(=O)C2(CCCC2)CCNC1=O [Example 12, (8R,13R)-13-[[[1-acetyl-3-(R)-(4-hydroxyphenyl)-2-(S)-pyrrolidinyl]carbonyl]amino]-6,14-dioxo-10,11-dithia-7,15-diazaspiro[4. 12]heptadecane-8-carboxylic Acid] | 0.185 nM | 0.21 nM
CC(=O)N1CC[C@H](c2ccc(O)cc2)[C@H]1C(=O)N[C@H]1CSSC[C@@H](C(=O)O)NC(=O)C2(CCCCC2)CCNC1=O [Example 19, (9R,14R)-14-[[[1-acetyl-3-(R)-(4-hydroxyphenyl)-2-(S)-pyrrolidinyl]-arbonyl]amino]-7,15-dioxo-11,12-dithia-8,16-diazaspiro[5. 12]Octadecane-9-carboxylic Acid] | 0.12 nM | 0.28 nM
CS(=O)(=O)N1CC[C@H](c2ccc(O)cc2)[C@H]1C(=O)N[C@H]1CSSC[C@@H](C(=O)O)NC(=O)C2(CCCC2)CCNC1=O [Example 22, (8R,13R)-13-[[[1-methylsulfonyl-3-(R)-(4-hydroxyphenyl)-2-(S)pyrrolidinyl]carbonyl]amino]-6,14-dioxo-10,11-dithia-7,15-diazaspiro[4. 12]-heptadecane-8-carboxylic Acid] | 0.17 nM | –
CC(C)(C)C(=O)N1CC[C@H](c2ccc(O)cc2)[C@H]1C(=O)N[C@H]1CSSC[C@@H](C(=O)O)NC(=O)C2(CCCC2)CCNC1=O [Example 24, (8R,13R)-13-[[[1-(2,2-dimethyl-1-oxopropyl)-3(R)-(4-hydroxyphenyl)-2(S)-pyrrolidinyl]carbonyl]amino]-6,14-dioxo-10,11-dithia-7,15-diazaspiro[4. 12]heptadecane-8-carboxylic Acid] | 0.14 nM | 0.18 nM
O=C(O)[C@@H]1CSSC[C@H](NC(=O)[C@H]2NCC[C@@H]2c2ccc(O)cc2)C(=O)NCCC2(CCCC2)C(=O)N1 [Example 26, (8R,13R)-13-[[[3(R)-(4-hydroxyphenyl)-2(S)-pyrrolidinyl]carbonyl]-amino]-6,14-dioxo-10,11-dithia-7,15-diazaspiro[4.12]heptadecane-8-carboxylic Acid] | 0.19 nM | –
CC(=O)N1CC[C@@H](c2ccc(O)cc2)[C@@H]1C(=O)N[C@H]1CSSC[C@@H](C(=O)O)NC(=O)C2(CCCC2)CCNC1=O [reference compound] | 1.65 nM | 24 nM

Source: patent publication US6265572A, “Pyrrolidincarbonylamino cyclic disulfide anti-inflammatory agents” (Hoffmann-La Roche Inc., priority 2000, dated 2001)
